In the assay the target is T1, murine P-glycoprotein (P-gp, ABCB1; abcb1a, mdr3) (Mus musculus, UniProt P21447).
T1 construct: opti-mdr3 gene product expressed in P. pastoris, purified in DDM
In words: thermostability shift of purified protein (static light scattering, tryptophan fluorescence, CPM dye) giving KD; cryo-EM with additional density (map a). The format is binding.

Structures are written as SMILES.

One may read the Kd as a measure of binding affinity in units of concentration.

T1 sequence (P21447 whole entry): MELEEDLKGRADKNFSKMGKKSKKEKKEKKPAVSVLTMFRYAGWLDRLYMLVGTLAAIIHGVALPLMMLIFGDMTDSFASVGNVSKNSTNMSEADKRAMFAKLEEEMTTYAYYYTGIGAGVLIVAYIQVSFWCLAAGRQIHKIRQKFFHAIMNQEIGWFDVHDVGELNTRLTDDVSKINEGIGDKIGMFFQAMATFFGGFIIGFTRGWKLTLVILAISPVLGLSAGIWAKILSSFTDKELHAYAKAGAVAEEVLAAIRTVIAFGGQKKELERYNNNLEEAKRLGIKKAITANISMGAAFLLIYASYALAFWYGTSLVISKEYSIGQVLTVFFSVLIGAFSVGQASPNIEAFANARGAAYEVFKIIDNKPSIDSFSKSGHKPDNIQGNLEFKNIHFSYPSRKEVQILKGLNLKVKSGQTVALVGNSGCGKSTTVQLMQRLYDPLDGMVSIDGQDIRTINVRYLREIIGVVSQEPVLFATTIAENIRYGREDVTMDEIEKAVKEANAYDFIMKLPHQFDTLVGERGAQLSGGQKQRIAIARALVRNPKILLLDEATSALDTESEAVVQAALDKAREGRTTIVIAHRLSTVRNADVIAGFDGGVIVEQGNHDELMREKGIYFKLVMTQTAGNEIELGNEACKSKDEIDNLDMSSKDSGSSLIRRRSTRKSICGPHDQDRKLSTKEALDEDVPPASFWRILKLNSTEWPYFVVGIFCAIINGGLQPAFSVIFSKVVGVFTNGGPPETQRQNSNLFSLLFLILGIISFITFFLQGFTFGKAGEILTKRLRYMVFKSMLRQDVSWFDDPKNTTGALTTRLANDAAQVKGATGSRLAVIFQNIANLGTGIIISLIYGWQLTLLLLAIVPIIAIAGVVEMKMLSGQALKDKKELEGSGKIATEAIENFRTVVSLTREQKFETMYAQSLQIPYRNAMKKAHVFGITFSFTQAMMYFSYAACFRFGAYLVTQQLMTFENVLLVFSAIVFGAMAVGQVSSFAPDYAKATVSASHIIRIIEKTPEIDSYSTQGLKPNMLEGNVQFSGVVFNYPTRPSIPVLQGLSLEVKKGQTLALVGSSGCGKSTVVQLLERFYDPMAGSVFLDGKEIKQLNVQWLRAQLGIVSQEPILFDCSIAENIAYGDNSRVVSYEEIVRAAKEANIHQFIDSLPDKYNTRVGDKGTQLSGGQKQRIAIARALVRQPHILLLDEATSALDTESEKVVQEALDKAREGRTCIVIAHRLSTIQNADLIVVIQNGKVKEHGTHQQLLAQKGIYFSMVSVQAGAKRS

`CC(C)(C)c1cc(C(C)(C)C)c(NC(=O)c2c[nH]c3ccccc3c2=O)cc1O` [ivacaftor]: the Kd turned out to be 200 nM.

Source of the values: article PMC8703531, “Structure of ABCB1/P-Glycoprotein in the Presence of the CFTR Potentiator Ivacaftor” (Membranes, 2021).
